According to patent US20260183297A1, “SELECTION OF PATIENTS FOR THE TREATMENT OF FADS1-MEDIATED DISEASES OR DISORDERS USING FADS-1 INHIBITORS” (AMGEN INC., priority 2022, published 2026):
Where two headings read alike, the source gives them in different places.

Target: T1, FADS1 (Mus musculus, UniProt Q920L1)
T1 construct: Liver from ^13C5-DGLA dosed DIO mice was collected for pharmacodynamic (PD) analysis; from tissue; host or cells: living DIO C57Bl/6 mice; 13C5-DGLA to 13C5-AA conversion read in liver (A4) or blood plasma (A5)
T1 sequence (Q920L1 1-447): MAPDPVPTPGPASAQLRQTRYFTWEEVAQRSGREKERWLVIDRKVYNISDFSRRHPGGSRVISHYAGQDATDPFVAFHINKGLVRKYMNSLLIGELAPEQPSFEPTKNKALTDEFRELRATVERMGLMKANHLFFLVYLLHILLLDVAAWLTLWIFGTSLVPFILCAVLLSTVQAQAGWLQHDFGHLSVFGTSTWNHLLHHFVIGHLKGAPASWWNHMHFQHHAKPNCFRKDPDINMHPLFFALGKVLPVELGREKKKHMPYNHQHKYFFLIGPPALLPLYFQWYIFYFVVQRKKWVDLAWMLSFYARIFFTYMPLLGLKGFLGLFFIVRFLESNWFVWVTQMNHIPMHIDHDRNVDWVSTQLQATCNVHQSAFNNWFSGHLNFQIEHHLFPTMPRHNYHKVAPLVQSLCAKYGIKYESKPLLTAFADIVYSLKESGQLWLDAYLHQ
Assay: In vivo FADS1 activity measurement using the liver (13C5-DGLA to 13C5-AA conversion)
Conditions: for IC50: liver of DIO mice, unbound plasma concentration, read-out: Free (unbound) in vivo IC50
Procedure: Mice were then dosed by intraperitoneal injection with a solution comprising of a mixture of 0.1 ml solution of ^13C5-DGLA (2 mM in 18.42 mM Na2CO3 buffer). Necropsy were performed at 30 minutes post ^13C5-DGLA dosing. Liver from ^13C5-DGLA dosed DIO mice was collected for pharmacodynamic (PD) analysis and EDTA plasma was collected for compound exposure determination. For PD analysis, 150 mg of frozen liver tissue were premixed with ALA-D14 as an internal standard. Liver samples were homogenized and extracted twice with chloroform/methanol (2:1) solution. The organic phases for the two extractions were pooled and evaporated to dryness under nitrogen gas. The liver extract was resuspended in 200 μl 2N NaOH and saponified at 65° C. for 1 hour. After cooling to room temperature, 100 μl of formic acid was added and the mixture was subjected to two consecutive extractions with a chloroform:methanol (2:1) solution. The pooled organic phases were evaporated to dryness under nitrogen gas and resuspended in a solution containing acetonitrile and methanol at a ratio of 1:1. The extracts were then analyzed by LC/MS/MS for the following analytes: ^13C5-DGLA, ^13C5-AA, with ALA-d14 as the internal standard. The sample (20 μl) was injected onto a Poroshell 120 EC-C18 3.0×50 mm, 1.9 μm id column (Agilent, Santa Clara, CA). The analyte peak areas were quantified using the Analyst software (SCIEX, Framingham, […]). The residual in vivo FADS1 activity was calculated by taking the percent of substrate to product conversion normalized to the vehicle group to determine the percent of control (POC) and the percent inhibition relative to control (vehicle).
To determine the degree of FADS1 inhibition, the in vivo FADS1 activity as the percent of conversion calculated using the following equation: […]
The data were then normalized to the vehicle group to determine the percent of inhibition relative to control (vehicle) by the following equation: […]
To calculate the in vivo potency, dose response graphs were generated by plotting the plasma concentration of the test compound determined from the PK analysis on the abscissa, against the percent of control (POC, relative to vehicle) of the FADS1 activity for each mouse. The data points were then fitted by using the log(inhibitor) vs response nonlinear regression algorithm using GraphPad Prism (version 8.4.3, San Diego CA) to calculate the in vivo IC50 (total).
Free (unbound) IC50 and IC90 values were calculated by first calculating the unbound compound concentration in the plasma by multiplying the plasma concentration of test compound with the fraction unbound (fu) value in mouse plasma determined in the plasma protein binding study. A dose response curve was used to determine the unbound IC50 and IC90 by plotting the unbound plasma concentration of the compound on the abscissa, against the percent of control (POC, relative to vehicle) of FADS1 activity for each mouse. The data points were then fitted with a log (inhibitor) versus response nonlinear regression algorithm using GraphPad Prism (version 8.4.3, San Diego, CA) to calculate the in vivo IC50 (Free).

[1] = DIO mice, single oral dose 10 mg/kg, 24 hours after dosing
[2] = DIO mice, single oral dose 30 mg/kg, 24 hours after dosing
[3] = mouse, DIO mice, single oral dose 10 mg/kg, 24 hours after dosing, read-out: Liver Avg % Inhibition
[4] = mouse, DIO mice, single oral dose 30 mg/kg, 24 hours after dosing, read-out: Liver Avg % Inhibition

Compound	Liver Avg % Conversion [1] [%]	Liver Avg % Conversion [2] [%]	Liver Avg % Conversion (DIO mice, single oral dose 50 mg/kg, 24 hours after dosing) [%]	IC50 [nM]	inhibition at 10 mg/kg [3] [%]	inhibition at 30 mg/kg [4] [%]	inhibition at 50 mg/kg (mouse, DIO mice, single oral dose 50 mg/kg, 24 hours after dosing) [%]	Liver Avg % Conversion (DIO mice, single oral dose 3 mg/kg, 24 hours after dosing) [%]	inhibition at 3 mg/kg (mouse, DIO mice, single oral dose 3 mg/kg, 24 hours after dosing) [%]	inhibition at 10 mg/kg (mouse, DIO mice, 10 mg/kg daily oral, after 54 days of treatment, read-out: FADS1 activity inhibited (residual liver FADS1 activity)) [%]	inhibition at 30 mg/kg (mouse, DIO mice, 30 mg/kg daily oral, after 54 days of treatment, read-out: FADS1 activity inhibited (residual liver FADS1 activity)) [%]
COc1ccn2c(=O)c(-c3cnn(CC(F)(F)C(F)(F)F)c3)c(C(F)(F)F)nc2n1 [Compound B]	2.2	1.5	1.4	4	97.4	98.2	98.3	–	–	–	–
N#Cc1ccn2c(=O)c(-c3cnn(CC(F)(F)C(F)(F)F)c3)c(C(F)(F)F)nc2c1 [Compound C]	4.3	1.5	–	4	94.8	98.2	–	14.2	83	–	–
COc1ccn2c(=O)c(-c3cnn(CC(F)(F)C(F)(F)F)c3)c(C(F)(F)F)nc2c1 [Compound A, 8-methoxy-3-(1-(2,2,3,3,3-pentafluoropropyl)-1H-pyrazol-4-yl)-2-(trifluoromethyl)-4H-pyrido[1,2-a]pyrimidin-4-one]	–	–	–	2	–	–	–	–	–	90	93.6
